In ChEMBL document CHEMBL5579861, “Cytotoxic Peptaibols from Trichoderma guizhouense, a Fungus Isolated from an Urban Soil Sample” (J Nat Prod, 2024):
Non-standard residues stand in square brackets, D forms with d. Residues, ends and D or L forms follow the SMILES beside them. *: point of attachment. Leu(ol) = CC(C)C[C@H](N)CO; dIva = CC[C@@](C)(N)C(=O)O; Valol = CC(C)[C@@H](CO)N*; Aib = CC(C)(N)C(=O)O

What was measured:
MDA-MB-231 = test: Cytotoxicity against human MDA-MB-231 cells assessed as reduction in cell viability after 24 hrs by MTT assay; format: functional, cell-based; settings: MDA-MB-231, 24 h
SK-HEP1 = test: Cytotoxicity against human SK-HEP1 cells assessed as reduction in cell viability after 24 hrs by MTT assay; format: functional, cell-based; settings: SK-HEP1, 24 h
SK-OV-3 = test: Cytotoxicity against human SK-OV-3 cells assessed as reduction in cell viability after 24 hrs by MTT assay; format: functional, cell-based; settings: SK-OV-3, 24 h
DU-145 = test: Cytotoxicity against human DU-145 cells assessed as reduction in cell viability after 24 hrs by MTT assay; format: functional, cell-based; settings: DU-145, 24 h
HCT-116 = test: Cytotoxicity against human HCT-116 cells assessed as reduction in cell viability after 24 hrs by MTT assay; format: functional, cell-based; settings: HCT-116, 24 h
Plasmodium falciparum = test: Antimalarial activity against Plasmodium falciparum Dd2 assessed as reduction in parasite growth incubated for 72 hrs by SYBR Green I staining based assay; format: functional, organism-based; settings: Dd2, 72 h
[1] = Cytotoxicity against human HepG2 cells assessed as reduction in cell viability after 48 hrs by MTS assay; format: toxicity, cell-based
[2] = Selectivity index, ratio of EC50 for cytotoxicity against human HepG2 cells to EC50 for antimalarial activity against Plasmodium falciparum Dd2; format: toxicity, cell-based; settings: read-out: Ratio EC50

## CC[C@@](C)(NC(C)=O)C(=O)N[C@@H](CCC(N)=O)C(=O)N[C@@H](CC(C)C)C(=O)NC(C)(C)C(=O)N1CCC[C@H]1C(=O)N[C@@H](C)C(=O)N[C@H](C(=O)NC(C)(C)C(=O)N1CCC[C@H]1C(=O)N[C@@H](CC(C)C)C(=O)N[C@@H](CC(C)C)C(=O)NC(C)(C)C(=O)N1CCC[C@H]1C(=O)N[C@H](CO)CC(C)C)C(C)C
MDA-MB-231
  IC50: 14 µM
SK-HEP1
  IC50: 19 µM
SK-OV-3
  IC50: 15 µM
DU-145
  IC50: 25 µM
HCT-116
  IC50: 14 µM

## CC[C@@](C)(NC(=O)[C@H](C)NC(=O)[C@H](CO)NC(=O)C(C)(C)NC(C)=O)C(=O)N[C@](C)(CC)C(=O)N[C@@H](CCC(N)=O)C(=O)N[C@](C)(CC)C(=O)N[C@@H](CC(C)C)C(=O)NC(C)(C)C(=O)N[C@@H](C)C(=O)NC(C)(C)C(=O)NC(C)(C)C(=O)N1CCC[C@H]1C(=O)N[C@@H](CC(C)C)C(=O)NC(C)(C)C(=O)NC(C)(C)C(=O)N[C@@H](CCC(N)=O)C(=O)N[C@H](CO)C(C)C
MDA-MB-231
  IC50: 0.68 µM
SK-HEP1
  IC50: 0.91 µM
SK-OV-3
  IC50: 0.91 µM
DU-145
  IC50: 1.4 µM
HCT-116
  IC50: 0.71 µM

## CC[C@@](C)(NC(C)=O)C(=O)N[C@@H](CCC(N)=O)C(=O)N[C@@H](CC(C)C)C(=O)NC(C)(C)C(=O)N1CCC[C@H]1C(=O)N[C@@H](C)C(=O)N[C@H](C(=O)NC(C)(C)C(=O)N1CCC[C@H]1C(=O)N[C@](C)(CC)C(=O)N[C@@H](CC(C)C)C(=O)NC(C)(C)C(=O)N1CCC[C@H]1C(=O)N[C@H](CO)CC(C)C)C(C)C
MDA-MB-231
  IC50: 5.9 µM
SK-HEP1
  IC50: 4.3 µM
SK-OV-3
  IC50: 4.3 µM
DU-145
  IC50: 9.2 µM
HCT-116
  IC50: 2.7 µM

## CC[C@@](C)(NC(=O)[C@H](C)NC(=O)[C@H](C)NC(=O)C(C)(C)NC(C)=O)C(=O)N[C@](C)(CC)C(=O)N[C@@H](CCC(N)=O)C(=O)N[C@](C)(CC)C(=O)N[C@@H](CC(C)C)C(=O)NC(C)(C)C(=O)N[C@@H](C)C(=O)NC(C)(C)C(=O)NC(C)(C)C(=O)N1CCC[C@H]1C(=O)N[C@@H](CC(C)C)C(=O)NC(C)(C)C(=O)NC(C)(C)C(=O)N[C@@H](CCC(N)=O)C(=O)N[C@H](CO)C(C)C
MDA-MB-231
  IC50: 0.85 µM
SK-HEP1
  IC50: 0.97 µM
SK-OV-3
  IC50: 2.9 µM
DU-145
  IC50: 4.5 µM
HCT-116
  IC50: 0.83 µM

## CC[C@H](C)[C@H](NC(=O)[C@@](C)(CC)NC(=O)[C@@H]1CCCN1C(=O)C(C)(C)NC(=O)[C@@H](NC(=O)[C@H](C)NC(=O)[C@@H]1CCCN1C(=O)C(C)(C)NC(=O)[C@H](CC(C)C)NC(=O)[C@H](CCC(N)=O)NC(=O)C(C)(C)NC(C)=O)C(C)C)C(=O)NC(C)(C)C(=O)N1CCC[C@H]1C(=O)N[C@H](CO)C(C)C
MDA-MB-231
  IC50: 3.9 µM
SK-HEP1
  IC50: 4.6 µM
SK-OV-3
  IC50: 3.8 µM
DU-145
  IC50: 9.3 µM
HCT-116
  IC50: 3.5 µM

## CC[C@@](C)(NC(=O)[C@H](C)NC(=O)[C@H](CO)NC(=O)C(C)(C)NC(C)=O)C(=O)N[C@](C)(CC)C(=O)N[C@@H](CCC(N)=O)C(=O)N[C@](C)(CC)C(=O)N[C@@H](CC(C)C)C(=O)NC(C)(C)C(=O)N[C@@H](C)C(=O)NC(C)(C)C(=O)NC(C)(C)C(=O)N1CCC[C@H]1C(=O)N[C@@H](CC(C)C)C(=O)NC(C)(C)C(=O)NC(C)(C)C(=O)N[C@@H](CCC(N)=O)C(=O)N[C@H](COC(C)=O)C(C)C
MDA-MB-231
  IC50: 0.84 µM
SK-HEP1
  IC50: 2.1 µM
SK-OV-3
  IC50: 2.9 µM
DU-145
  IC50: 1.5 µM
HCT-116
  IC50: 0.88 µM

## CC[C@H](C)[C@H](NC(=O)C(C)(C)NC(=O)[C@@H]1CCCN1C(=O)C(C)(C)NC(=O)[C@@H](NC(=O)[C@H](C)NC(=O)[C@@H]1CCCN1C(=O)C(C)(C)NC(=O)[C@H](CC(C)C)NC(=O)[C@H](CCC(N)=O)NC(=O)[C@@](C)(CC)NC(C)=O)C(C)C)C(=O)NC(C)(C)C(=O)N1CCC[C@H]1C(=O)N[C@H](CO)CC(C)C
MDA-MB-231
  IC50: 20 µM
SK-HEP1
  IC50: 4.8 µM
SK-OV-3
  IC50: > 50 µM
DU-145
  IC50: > 50 µM
HCT-116
  IC50: 16 µM

## CC[C@H](C)[C@H](NC(=O)[C@@](C)(CC)NC(=O)[C@@H]1CCCN1C(=O)C(C)(C)NC(=O)[C@@H](NC(=O)[C@H](C)NC(=O)[C@@H]1CCCN1C(=O)C(C)(C)NC(=O)[C@H](CC(C)C)NC(=O)[C@H](CCC(N)=O)NC(=O)C(C)(C)NC(C)=O)C(C)C)C(=O)NC(C)(C)C(=O)N1CCC[C@H]1C(=O)N[C@H](CO)CC(C)C
MDA-MB-231
  IC50: 4.3 µM
SK-HEP1
  IC50: 3.8 µM
SK-OV-3
  IC50: 3.8 µM
DU-145
  IC50: 10 µM
HCT-116
  IC50: 3 µM

## CC[C@H](C)[C@H](NC(=O)[C@@](C)(CC)NC(=O)[C@@H]1CCCN1C(=O)C(C)(C)NC(=O)[C@@H](NC(=O)[C@H](C)NC(=O)[C@@H]1CCCN1C(=O)C(C)(C)NC(=O)[C@H](CC(C)C)NC(=O)[C@H](CCC(N)=O)NC(=O)[C@@](C)(CC)NC(C)=O)C(C)C)C(=O)NC(C)(C)C(=O)N1CCC[C@H]1C(=O)N[C@H](CO)CC(C)C
MDA-MB-231
  IC50: 5.5 µM
SK-HEP1
  IC50: 8 µM
SK-OV-3
  IC50: 9.2 µM
DU-145
  IC50: 20 µM
HCT-116
  IC50: 4.8 µM

## CC[C@H](C)[C@H](NC(=O)C(C)(C)NC(=O)[C@@H]1CCCN1C(=O)C(C)(C)NC(=O)[C@@H](NC(=O)[C@H](C)NC(=O)[C@@H]1CCCN1C(=O)C(C)(C)NC(=O)[C@H](CC(C)C)NC(=O)[C@H](CCC(N)=O)NC(=O)C(C)(C)NC(C)=O)C(C)C)C(=O)NC(C)(C)C(=O)N1CCC[C@H]1C(=O)N[C@H](CO)C(C)C (Ac-[Aib]QL[Aib]PAV[Aib]P[Aib]I[Aib]P-Valol)
MDA-MB-231
  IC50: 4.6 µM
SK-HEP1
  IC50: 11 µM
SK-OV-3
  IC50: 7.8 µM
DU-145
  IC50: 16 µM
HCT-116
  IC50: 9.5 µM

## CC[C@H](C)[C@H](NC(=O)C(C)(C)NC(=O)[C@@H]1CCCN1C(=O)C(C)(C)NC(=O)[C@@H](NC(=O)[C@H](C)NC(=O)[C@@H]1CCCN1C(=O)C(C)(C)NC(=O)[C@H](CC(C)C)NC(=O)[C@H](CCC(N)=O)NC(=O)C(C)(C)NC(C)=O)C(C)C)C(=O)NC(C)(C)C(=O)N1CCC[C@H]1C(=O)N[C@H](CO)CC(C)C (Ac-[Aib]QL[Aib]PAV[Aib]P[Aib]I[Aib]P[Leu(ol)])
MDA-MB-231
  IC50: 37 µM
SK-HEP1
  IC50: 31 µM
SK-OV-3
  IC50: 24 µM
DU-145
  IC50: 36 µM
HCT-116
  IC50: 16 µM

## CC(=O)NC(C)(C)C(=O)N[C@@H](CCC(N)=O)C(=O)N[C@@H](CC(C)C)C(=O)NC(C)(C)C(=O)N1CCC[C@H]1C(=O)N[C@@H](C)C(=O)N[C@H](C(=O)NC(C)(C)C(=O)N1CCC[C@H]1C(=O)NC(C)(C)C(=O)N[C@H](C(=O)NC(C)(C)C(=O)N1CCC[C@H]1C(=O)N[C@H](CO)CC(C)C)C(C)C)C(C)C (Ac-[Aib]QL[Aib]PAV[Aib]P[Aib]V[Aib]P[Leu(ol)])
MDA-MB-231
  IC50: 6.4 µM
SK-HEP1
  IC50: 8.9 µM
SK-OV-3
  IC50: 5.3 µM
DU-145
  IC50: 11 µM
HCT-116
  IC50: 7.1 µM

## CC[C@H](C)[C@H](NC(=O)[C@H](CC(C)C)NC(=O)[C@H](CCC(N)=O)NC(=O)[C@@](C)(CC)NC(C)=O)C(=O)NC(C)(C)C(=O)N1CCC[C@H]1C(=O)N[C@](C)(CC)C(=O)N[C@@H](CC(C)C)C(=O)NC(C)(C)C(=O)N1CCC[C@H]1C(=O)N[C@H](CO)CC(C)C (Ac-[dIva]QLI[Aib]P[dIva]L[Aib]P[Leu(ol)])
Plasmodium falciparum
  EC50: 0.1 µM
[1]
  EC50 at 48 h: > 25 µM
[2]
  selectivity ratio: > 250

## CC(=O)O[C@@]12CO[C@@H]1C[C@H](O)[C@@]1(C)C(=O)[C@H](O)C3=C(C)[C@@H](OC(=O)[C@H](O)[C@@H](NC(=O)OC(C)(C)C)c4ccccc4)C[C@@](O)([C@@H](OC(=O)c4ccccc4)[C@H]21)C3(C)C [DOCETAXEL ANHYDROUS]
MDA-MB-231
  IC50: 0.17 µM
SK-HEP1
  IC50: 0.03 µM
SK-OV-3
  IC50: 0.05 µM
DU-145
  IC50: 0.04 µM
